{
  "source": "patent US11261194B2",
  "about": "“Production method of diol” (MITSUBISHI GAS CHEMICAL COMPANY, INC., priority 2017, dated 2022)",
  "assay": "solubility in water at 25° C.",
  "type": "physicochemical",
  "data": [
    {"smiles": "CC(CO)(CO)CO", "note": "[trimethylolethane]", "values": [
      {"measurement": "solubility in water at 25° C.", "result": "≥ 100", "unit": "mg/mL"}
    ]},
    {"smiles": "O=C1CCC(=O)CC1", "note": "[1,4-cyclohexanedione]", "values": [
      {"measurement": "solubility", "result": 750, "unit": "mg/mL"}
    ]},
    {"smiles": "CCC1(CO)COC2(CCC3(CC2)OCC(CC)(CO)CO3)OC1", "note": "(stereo not shown) [compound A]", "values": [
      {"measurement": "solubility in water at 25° C.", "result": "≤ 0.5", "unit": "mg/mL"}
    ]},
    {"smiles": "CC1(CO)COC2(CCC3(CC2)OCC(C)(CO)CO3)OC1", "note": "(stereo not shown) [compound B]", "values": [
      {"measurement": "solubility in water at 25° C.", "result": "≤ 0.5", "unit": "mg/mL"}
    ]}
  ]
}
